# Laboratory results as given in US20250353873A1, “COMPOUNDS AND METHODS FOR MODULATING APOE EXPRESSION” (Ionis Pharmaceuticals, Inc., priority 2024, published 2025).
# Strand notation (5' to 3'): a small letter for the sugar, then the base; units joined by * are phosphorothioate-linked, units joined directly phosphodiester-linked; [ ] holds rarer units or linkages, { } end groups; capitals alone tell only the bases. [ms] = mesyl phosphoramidate linkage; e = 2'-O-(2-methoxyethyl) (MOE); [5mC] = 5-methylcytosine; d = 2'-deoxy (DNA)
# How the values were obtained:
# human APOE RNA [1] = assay: Activity in APOE C57BL/6NTac-Apoeem7250 knock-in mice, single ICV bolus, 8 weeks (Example 11); format: in vivo; conditions: single ICV bolus 300 μg, 8 weeks post treatment, normalized to mouse Ppia
# Description: (§1) Modified oligonucleotides described above were tested in the APOE C57BL/6NTac-Apoeem7250 knock-in mouse model described above.
# Each mouse received a single ICV bolus of 300 μg of modified oligonucleotide. A group of 3-4 mice received a single ICV bolus with PBS as a negative control.
# (§2) Eight weeks post treatment, mice were sacrificed and RNA was extracted from cortical brain tissue and spinal cord for quantitative real-time RT-PCR analysis of RNA expression of APOE using human primer probe set RTS3073 (described herein above). APOE RNA levels were normalized to mouse Ppia. Mouse Ppia was amplified using primer probe set m_cyclo24 (described herein above). Results are presented as percent human APOE RNA relative to the amount of human APOE RNA in PBS treated animals, (% control). Each experiment is identified in separate tables below.
# human APOE RNA [2] = assay: Activity in APOE C57BL/6NTac-Apoeem7250 knock-in mice, single ICV bolus, 16 weeks (Example 12); format: in vivo; conditions: single ICV bolus 300 μg, 16 weeks post treatment, normalized to mouse Ppia
# Description: as §1
# APOE C57BL/6NTac-Apoeem7250 knock-in mice were divided into groups of 3-4 mice each. Each mouse received a single intracerebroventricular (ICV) bolus of 300 μg of modified oligonucleotide. A group of 4 mice received a single ICV bolus with PBS as a negative control.
# as §2, with “Sixteen” for “Eight”, “using” for “using human”
Substance,APOE RNA (% control) Cortex (human APOE RNA [1]) [% control],APOE RNA (% control) Spinal Cord (human APOE RNA [1]) [% control],APOE RNA (% control) Cortex (human APOE RNA [2]) [% control],APOE RNA (% control) Spinal Cord (human APOE RNA [2]) [% control]
"1652898: 6-10-4 MOE gapmer GGTGAATCTTTATTAAACTA, linkages sooooossssssssssoss (antisense eG*eGeTeGeAeAdT*d[5mC]*dT*dT*dT*dA*dT*dT*dA*dA*eAe[5mC]*eT*eA) [compound 1652898]",56,20,,
"1652899: 6-10-4 MOE gapmer TGGTGAATCTTTATTAAACT, linkages sooooossssssssssoss (antisense eT*eGeGeTeGeAdA*dT*d[5mC]*dT*dT*dT*dA*dT*dT*dA*eAeA*e[5mC]*eT) [compound 1652899]",57,16,,
"1652900: 6-10-4 MOE gapmer GTGAATCTTTATTAAACTAG, linkages sooooossssssssssoss (antisense eG*eTeGeAeAeTd[5mC]*dT*dT*dT*dA*dT*dT*dA*dA*dA*e[5mC]eT*eA*eG) [compound 1652900]",83,47,,
"1652905: 6-10-4 MOE gapmer GGTGAATCTTTATTAAACTA, linkages sooossssssssssssoss (antisense eG*eGeTeGeA*eA*dT*d[5mC]*dT*dT*dT*dA*dT*dT*dA*dA*eAe[5mC]*eT*eA) [compound 1652905]",44,15,,
"1652907: 5-10-5 MOE gapmer GGTGAATCTTTATTAAACTA, linkages soooszzssssssssooss (antisense eG*eGeTeGeA*dA[ms]dT[ms]d[5mC]*dT*dT*dT*dA*dT*dT*dA*eAeAe[5mC]*eT*eA) [compound 1652907]",54,16,,
"1652908: 5-10-5 MOE gapmer GGTGAATCTTTATTAAACTA, linkages soooszzzsssssssooss (antisense eG*eGeTeGeA*dA[ms]dT[ms]d[5mC][ms]dT*dT*dT*dA*dT*dT*dA*eAeAe[5mC]*eT*eA) [compound 1652908]",54,18,,
"1652909: 5-10-5 MOE gapmer GGTGAATCTTTATTAAACTA, linkages soooszzzzssssssooss (antisense eG*eGeTeGeA*dA[ms]dT[ms]d[5mC][ms]dT[ms]dT*dT*dA*dT*dT*dA*eAeAe[5mC]*eT*eA) [compound 1652909]",55,23,,
"1652910: 5-10-5 MOE gapmer GGTGAATCTTTATTAAACTA, linkages sooosszzsssssssooss (antisense eG*eGeTeGeA*dA*dT[ms]d[5mC][ms]dT*dT*dT*dA*dT*dT*dA*eAeAe[5mC]*eT*eA) [compound 1652910]",82,39,,
"1652911: 5-10-5 MOE gapmer GGTGAATCTTTATTAAACTA, linkages sooosszzzssssssooss (antisense eG*eGeTeGeA*dA*dT[ms]d[5mC][ms]dT[ms]dT*dT*dA*dT*dT*dA*eAeAe[5mC]*eT*eA) [compound 1652911]",130,57,,
"1652912: 5-10-5 MOE gapmer GGTGAATCTTTATTAAACTA, linkages sooossssssszsszooss (antisense eG*eGeTeGeA*dA*dT*d[5mC]*dT*dT*dT*dA[ms]dT*dT*dA[ms]eAeAe[5mC]*eT*eA) [compound 1652912]",95,41,,
"1652913: 5-10-5 MOE gapmer GGTGAATCTTTATTAAACTA, linkages soooszssssszsszooss (antisense eG*eGeTeGeA*dA[ms]dT*d[5mC]*dT*dT*dT*dA[ms]dT*dT*dA[ms]eAeAe[5mC]*eT*eA) [compound 1652913]",75,33,,
"1652914: 5-10-5 MOE gapmer GGTGAATCTTTATTAAACTA, linkages soooszzssssssszooss (antisense eG*eGeTeGeA*dA[ms]dT[ms]d[5mC]*dT*dT*dT*dA*dT*dT*dA[ms]eAeAe[5mC]*eT*eA) [compound 1652914]",108,43,,
"1652916: 5-10-5 MOE gapmer GGTGAATCTTTATTAAACTA, linkages soooszzzsssssszooss (antisense eG*eGeTeGeA*dA[ms]dT[ms]d[5mC][ms]dT*dT*dT*dA*dT*dT*dA[ms]eAeAe[5mC]*eT*eA) [compound 1652916]",128,49,,
"1652917: 6-10-4 MOE gapmer GGTGAATCTTTATTAAACTA, linkages sooooossssszsszzoss (antisense eG*eGeTeGeAeAdT*d[5mC]*dT*dT*dT*dA[ms]dT*dT*dA[ms]dA[ms]eAe[5mC]*eT*eA) [compound 1652917]",107,41,,
"1652918: 6-10-4 MOE gapmer GGTGAATCTTTATTAAACTA, linkages sooooozzzsssssssoss (antisense eG*eGeTeGeAeAdT[ms]d[5mC][ms]dT[ms]dT*dT*dA*dT*dT*dA*dA*eAe[5mC]*eT*eA) [compound 1652918]",91,47,,
"1652919: 6-10-4 MOE gapmer GGTGAATCTTTATTAAACTA, linkages soooooszzzssssssoss (antisense eG*eGeTeGeAeAdT*d[5mC][ms]dT[ms]dT[ms]dT*dA*dT*dT*dA*dA*eAe[5mC]*eT*eA) [compound 1652919]",90,54,,
"1693106: 6-10-4 MOE gapmer CTTGGTGAATCTTTATTAAA, linkages sssssszzzssssszssss (e[5mC]*eT*eT*eG*eG*eT*dG[ms]dA[ms]dA[ms]dT*d[5mC]*dT*dT*dT*dA[ms]dT*eT*eA*eA*eA) [compound 1693106]",,,78,71
"1693110: 6-10-4 MOE gapmer CTTGGTGAATCTTTATTAAA, linkages sssssszzzsssszzssss (e[5mC]*eT*eT*eG*eG*eT*dG[ms]dA[ms]dA[ms]dT*d[5mC]*dT*dT*dT[ms]dA[ms]dT*eT*eA*eA*eA) [compound 1693110]",,,113,92
"1693138: 6-10-4 MOE gapmer CTTGGTGAATCTTTATTAAA, linkages sssssozzzsssszzsoss (e[5mC]*eT*eT*eG*eG*eTdG[ms]dA[ms]dA[ms]dT*d[5mC]*dT*dT*dT[ms]dA[ms]dT*eTeA*eA*eA) [compound 1693138]",,,90,85
"1693139: 6-10-4 MOE gapmer ACTTGGTGAATCTTTATTAA, linkages ssssssszzzssssszsss (eA*e[5mC]*eT*eT*eG*eG*dT*dG[ms]dA[ms]dA[ms]dT*d[5mC]*dT*dT*dT*dA[ms]eT*eT*eA*eA) [compound 1693139]",,,92,97
"1693140: 6-10-4 MOE gapmer ACTTGGTGAATCTTTATTAA, linkages sssssoszzzssssszoss (eA*e[5mC]*eT*eT*eG*eGdT*dG[ms]dA[ms]dA[ms]dT*d[5mC]*dT*dT*dT*dA[ms]eTeT*eA*eA) [compound 1693140]",,,109,68
"1693141: 6-10-4 MOE gapmer ACTTGGTGAATCTTTATTAA, linkages ssssooszzzssssszsss (eA*e[5mC]*eT*eT*eGeGdT*dG[ms]dA[ms]dA[ms]dT*d[5mC]*dT*dT*dT*dA[ms]eT*eT*eA*eA) [compound 1693141]",,,82,66
"1693142: 6-10-4 MOE gapmer ACTTGGTGAATCTTTATTAA, linkages sssoosszzzssssszsss (eA*e[5mC]*eT*eTeGeG*dT*dG[ms]dA[ms]dA[ms]dT*d[5mC]*dT*dT*dT*dA[ms]eT*eT*eA*eA) [compound 1693142]",,,98,92
"1693143: 6-10-4 MOE gapmer ACTTGGTGAATCTTTATTAA, linkages ssossszzzssssszsss (as printed) (sugars from the 5' end e6 d10 e4, all C 5-methyl, backbone not given here; further chemistry not fully specified) [compound 1693143]",,,76,64
